The subject of one experiment is DAPI. The experiment can be described thus: TAG lipid buildup inhibition with viability readout – cell-based, panel, Nile Red and DAPI fluorescence, H9c2, dose response (AID 651630).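 Further: cells exposed to compound overnight before fixation and staining.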 The note with it: H9c2 cells, DAPI nuclear fluorescence (cytotoxicity counter-readout), oleic acid.
The test system of a further experiment is TAG. The description is as above. As to conditions: H9c2 cells, Nile Red TAG fluorescence, oleic acid.

For 26 compounds, IC50 cytotoxicity (DAPI nuclear signal decrease) and IC50 results are on record in PubChem BioAssay AID651630 (Sanford-Burnham Center for Chemical Genomics, 2012).

pIC50: −log10 of the molar value. Calls of active or inactive are those of the source.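 How the source made its calls: active means lipid-stain IC50 at or below a set limit, with nuclear-stain toxicity IC50 at least five times higher; inactive means the rest.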

A word on the pIC50: it is the IC50 on a negative log10 scale, so that one unit is a factor of ten. `CCOC(=O)c1cc(-c2ccccc2)sc1NC(=O)COC(=O)c1cccc(S(N)(=O)=O)c1`: the IC50 cytotoxicity (DAPI nuclear signal decrease) with DAPI (mean of runs) is > 25 µM (inactive); with DAPI (run 1), greater than 25 µM; with DAPI (run 2), greater than 25 µM. Besides, the pIC50 in the experiment with TAG (run 1) is less than 4.60; with TAG (run 2), 4.67.
As usually defined, the IC50 is the midpoint of a concentration-inhibition curve. As for `COc1cc2nc(NCCCN3CCN(C)CC3)n3nc(-c4ccccc4)nc3c2cc1OC`, the IC50 cytotoxicity (DAPI nuclear signal decrease) was > 25 µM (inactive) with DAPI (mean of runs), greater than 25 µM in the experiment with DAPI (run 1) and greater than 25 µM in the experiment with DAPI (run 2). For the same compound, the IC50 in the experiment with TAG (mean of runs) was > 25 µM (inactive). Besides, the pIC50 with TAG (run 1) and in the experiment on TAG (run 2) was less than 4.60 in each case.
As to `CC(C)c1ccc(NC(=O)Nc2nc(C(N)COCc3ccccc3)cs2)cc1` (stereo unspecified), the figures for the IC50 cytotoxicity (DAPI nuclear signal decrease) in the experiment on DAPI (mean of runs), with DAPI (run 1) and in the experiment with DAPI (run 2) were 20.2 µM (inactive), 20.8 µM and 19.7 µM, respectively. In addition, the pIC50 in the experiment with TAG (run 1) is less than 4.60; in the experiment on TAG (run 2), 4.85.
`Cc1c(C(=O)N2CC3(CC(c4cccc(NC(=O)CC(c5ccccc5)c5ccccc5)c4)=NO3)C[C@@H]2C(N)=O)cc([N+](=O)[O-])cc1[N+](=O)[O-]` (stereo partly specified): the results for the IC50 cytotoxicity (DAPI nuclear signal decrease) with DAPI (mean of runs), in the experiment with DAPI (run 1) and in the experiment with DAPI (run 2) were > 25 µM (inactive), greater than 25 µM and greater than 25 µM, respectively. Further, the pIC50 was 4.91 in the experiment on TAG (mean of runs), 4.93 with TAG (run 1) and 4.90 in the experiment on TAG (run 2).
Consider `O=C(Nc1cccc(-c2csc(Nc3ccc(Cl)cc3)n2)c1)c1cccc(C(F)(F)F)c1`, for which the results for the IC50 cytotoxicity (DAPI nuclear signal decrease) in the experiment with DAPI (mean of runs), with DAPI (run 1) and in the experiment on DAPI (run 2) were > 25 µM (inactive), greater than 25 µM and greater than 25 µM, respectively. Also, the IC50 in the experiment on TAG (mean of runs) was 15.2 µM (inactive). Also, the pIC50 is 4.87 in the experiment with TAG (run 1) and 4.78 with TAG (run 2).
Consider `O=C1NC(Cc2ccc(O)cc2)c2nc3ccc(F)cc3c(=O)n2-c2cc3ccccc3cc21` (stereo unspecified), for which the IC50 cytotoxicity (DAPI nuclear signal decrease) in the experiment with DAPI (run 1) and with DAPI (run 2) was greater than 25 µM each time. Further, the pIC50 in the experiment with TAG (mean of runs) was 5.61; with TAG (run 1) it was 5.68; with TAG (run 2), 5.56.
Consider `Cc1cc(NC(=O)c2cc(-c3ccncc3)nc3c(C)cccc23)no1`, for which the IC50 cytotoxicity (DAPI nuclear signal decrease) is > 25 µM (inactive) with DAPI (mean of runs), greater than 25 µM in the experiment with DAPI (run 1) and greater than 25 µM in the experiment on DAPI (run 2). For the same compound, the pIC50 in the experiment on TAG (mean of runs) is 4.94; in the experiment on TAG (run 1), 4.98; in the experiment with TAG (run 2) it was 4.90.
In the case of `CCCCC(CC)C(=O)Nc1cc(C(=O)NCc2ccc(C)cc2)ccc1N1CCC2(CC1)CC(c1ccccc1)=NO2` (stereo unspecified), the IC50 cytotoxicity (DAPI nuclear signal decrease) in the experiment with DAPI (run 1) and with DAPI (run 2) was greater than 25 µM throughout. Also, the pIC50 in the experiment with TAG (mean of runs), in the experiment on TAG (run 1) and in the experiment with TAG (run 2) was 5.46 each time.
For `CC1(C(=O)NCc2ccccc2)Cc2c(-c3cccc(C(N)=O)c3)ccnc2O1` (stereo unspecified), the results for the IC50 cytotoxicity (DAPI nuclear signal decrease) in the experiment with DAPI (mean of runs), in the experiment with DAPI (run 1) and in the experiment with DAPI (run 2) were > 25 µM (inactive), greater than 25 µM and greater than 25 µM, respectively. The pIC50 with TAG (run 1) was 4.68; with TAG (run 2), less than 4.60.
For `NC1=NC[C@H](Cc2ccccc2)N1CCc1cc(C(F)(F)F)cc(C(F)(F)F)c1`, the IC50 cytotoxicity (DAPI nuclear signal decrease) was > 25 µM (inactive) with DAPI (mean of runs), greater than 25 µM in the experiment on DAPI (run 1) and greater than 25 µM in the experiment with DAPI (run 2). For the same compound, the IC50 with TAG (mean of runs) was > 25 µM (inactive). Also, the pIC50 in the experiment with TAG (run 1) and with TAG (run 2) was less than 4.60 in each case.
Consider `Cc1ccc(-c2cc(C(F)F)n3ncc(C(=O)Nc4c(C)nn(Cc5c(Cl)cccc5Cl)c4C)c3n2)cc1`, for which the IC50 cytotoxicity (DAPI nuclear signal decrease) is > 25 µM (inactive) in the experiment on DAPI (mean of runs), greater than 25 µM in the experiment with DAPI (run 1) and greater than 25 µM with DAPI (run 2). Further, in the experiment with TAG (mean of runs), the IC50 is > 25 µM (inactive). For the same compound, the pIC50 in the experiment with TAG (run 1) and in the experiment with TAG (run 2) was less than 4.60 each time.
For the compound `CC1(C(=O)Nc2ccc3c(c2)OCO3)Cc2c(-c3cccc(C(N)=O)c3)ccnc2O1` (stereo unspecified), the IC50 cytotoxicity (DAPI nuclear signal decrease) in the experiment on DAPI (mean of runs) was > 25 µM (inactive); in the experiment on DAPI (run 1), greater than 25 µM; in the experiment with DAPI (run 2), greater than 25 µM. For the same compound, the pIC50 was less than 4.60 with TAG (run 1) and 4.72 in the experiment on TAG (run 2).
As for `Nc1c(C(=O)Nc2ccccc2)c2nc3ccccc3nc2n1-c1ccc(O)cc1`, the IC50 cytotoxicity (DAPI nuclear signal decrease) with DAPI (run 1) and in the experiment on DAPI (run 2) was greater than 25 µM in each case. The figures for the pIC50 in the experiment on TAG (mean of runs), in the experiment on TAG (run 1) and in the experiment with TAG (run 2) were 5.52, 5.68 and 5.41, respectively.
As for `COc1ccc(-c2cnc3c(NC=O)cc(-c4cccc(NS(C)(=O)=O)c4)cn23)cc1OC`, the values for the IC50 cytotoxicity (DAPI nuclear signal decrease) in the experiment on DAPI (mean of runs), with DAPI (run 1) and in the experiment with DAPI (run 2) were 21.6 µM (inactive), 20.1 µM and 23 µM, respectively. The pIC50 is 4.88 in the experiment with TAG (mean of runs), 4.89 with TAG (run 1) and 4.87 in the experiment on TAG (run 2).
With `COc1ccc(Nc2oc(-c3ccc(Cl)cc3)nc2C#N)cc1`, the IC50 cytotoxicity (DAPI nuclear signal decrease) was > 25 µM (inactive) in the experiment with DAPI (mean of runs), greater than 25 µM in the experiment on DAPI (run 1) and greater than 25 µM in the experiment on DAPI (run 2). The negative logarithm of the IC50 (pIC50) with TAG (run 1) is 4.75; in the experiment on TAG (run 2) it was less than 4.60.
As to `COc1ccc(CC(N)c2csc(NC(=O)NCc3ccccc3)n2)cc1` (stereo unspecified), the values for the IC50 cytotoxicity (DAPI nuclear signal decrease) with DAPI (mean of runs), in the experiment with DAPI (run 1) and in the experiment with DAPI (run 2) were > 25 µM (inactive), greater than 25 µM and greater than 25 µM, respectively. Besides, in the experiment on TAG (mean of runs), the IC50 was 17.9 µM (inactive). Besides, the pIC50 was 4.69 in the experiment on TAG (run 1) and 4.81 in the experiment with TAG (run 2).
For `CCN1C(=O)[C@H]2[C@@H](c3ccc(-c4cccc(Cl)c4)cc3)N[C@@](Cc3ccccc3)(C(=O)OC)[C@H]2C1=O`, the IC50 cytotoxicity (DAPI nuclear signal decrease) in the experiment on DAPI (mean of runs) was > 25 µM (inactive); with DAPI (run 1), greater than 25 µM; in the experiment with DAPI (run 2), greater than 25 µM. Also, in the experiment on TAG (mean of runs), the IC50 is 20 µM (inactive). The pIC50 in the experiment on TAG (run 1) was 4.80; in the experiment with TAG (run 2), 4.62.
`Cc1ccccc1NC(=O)CSc1nc2ccc(Nc3nc(N4CCOCC4)nc(N4CCOCC4)n3)cc2s1`: the IC50 cytotoxicity (DAPI nuclear signal decrease) in the experiment with DAPI (mean of runs) is > 25 µM (inactive); in the experiment with DAPI (run 1) it was greater than 25 µM; with DAPI (run 2) it was greater than 25 µM. The pIC50 was 4.97 in the experiment on TAG (mean of runs), 4.98 in the experiment with TAG (run 1) and 4.97 in the experiment on TAG (run 2).
Consider `CC(C)CC(N)c1csc(NC(=O)Nc2ccccc2Cc2ccccc2)n1` (stereo unspecified), for which the IC50 cytotoxicity (DAPI nuclear signal decrease) is 20.4 µM in the experiment on DAPI (run 1) and greater than 25 µM in the experiment on DAPI (run 2). Besides, the IC50 with TAG (mean of runs) is > 25 µM (inactive). The pIC50 in the experiment on TAG (run 1) and in the experiment with TAG (run 2) was less than 4.60 each time.
For the compound `CCOc1ccccc1C1C2=C(COC2=O)Nc2cc3c(cc21)OCO3` (stereo unspecified), the results for the IC50 cytotoxicity (DAPI nuclear signal decrease) in the experiment on DAPI (mean of runs), in the experiment with DAPI (run 1) and in the experiment on DAPI (run 2) were > 25 µM (inactive), greater than 25 µM and greater than 25 µM, respectively. Also, the pIC50 with TAG (run 1) was less than 4.60; in the experiment with TAG (run 2), greater than 6.11.
In the case of `CCOC(=O)[C@H]1[C@H]2COc3ccc(Br)cc3[C@@H]2N2C(=O)c3cc(Br)ccc3NC(=O)[C@@]12C`, the figures for the IC50 cytotoxicity (DAPI nuclear signal decrease) in the experiment on DAPI (mean of runs), in the experiment with DAPI (run 1) and with DAPI (run 2) were > 25 µM (inactive), greater than 25 µM and greater than 25 µM, respectively. Further, the IC50 with TAG (mean of runs) was > 25 µM (inactive). Further, the pIC50 in the experiment with TAG (run 1) and with TAG (run 2) was less than 4.60 in each case.
As to `Cc1ccc(-c2csc(NC(=O)CSc3nc4ccccc4c(=O)n3CCCN(C)C)n2)cc1`, the IC50 cytotoxicity (DAPI nuclear signal decrease) in the experiment on DAPI (mean of runs) is > 25 µM (inactive); in the experiment with DAPI (run 1), greater than 25 µM; in the experiment with DAPI (run 2), greater than 25 µM. Also, the negative-log IC50 (pIC50) in the experiment with TAG (mean of runs) is 5.15; with TAG (run 1), 5.13; in the experiment with TAG (run 2), 5.18.
Regarding `CCN(C[C@H]1N[C@@](CC)(C(=O)OC)[C@H]2C(=O)N(Cc3ccccc3)C(=O)[C@@H]12)S(=O)(=O)c1ccc(C(C)(C)C)cc1`, the figures for the IC50 cytotoxicity (DAPI nuclear signal decrease) in the experiment with DAPI (mean of runs), in the experiment on DAPI (run 1) and with DAPI (run 2) were > 25 µM (inactive), greater than 25 µM and greater than 25 µM, respectively. Besides, the results for the pIC50 in the experiment on TAG (mean of runs), in the experiment with TAG (run 1) and with TAG (run 2) were 5.00, 4.98 and 5.02, respectively.
As for `COc1ccc(OC)c(N(CCN2C(=O)c3ccccc3C2=O)C(=O)CCl)c1`, the IC50 cytotoxicity (DAPI nuclear signal decrease) with DAPI (mean of runs) was > 25 µM (inactive); with DAPI (run 1), greater than 25 µM; in the experiment with DAPI (run 2), greater than 25 µM. In the experiment with TAG (mean of runs), the IC50 is > 25 µM (inactive). For the same compound, the pIC50 in the experiment with TAG (run 1) and in the experiment with TAG (run 2) was less than 4.60 each time.
`COc1ccc(-c2cc3nc(-c4ccccc4)cc(N4CCN(C(=O)c5ccccc5)CC4)n3n2)cc1`: the IC50 cytotoxicity (DAPI nuclear signal decrease) with DAPI (mean of runs) was > 25 µM (inactive); in the experiment with DAPI (run 1), greater than 25 µM; in the experiment on DAPI (run 2) it was greater than 25 µM. Moreover, in the experiment on TAG (mean of runs), the IC50 was > 25 µM (inactive). Also, the pIC50 with TAG (run 1) and in the experiment on TAG (run 2) was less than 4.60 in each case.
Regarding `Cc1ccc2oc(NC3=NC4(CCCC4)C4=C(CCCC4=O)N3)nc2c1`, the results for the IC50 cytotoxicity (DAPI nuclear signal decrease) with DAPI (mean of runs), in the experiment with DAPI (run 1) and in the experiment with DAPI (run 2) were > 25 µM (inactive), greater than 25 µM and greater than 25 µM, respectively. The pIC50 in the experiment on TAG (mean of runs) is 5.12; in the experiment on TAG (run 1), 5.06; in the experiment on TAG (run 2), 5.18.
